Reference: patent publication US6362369B1, “Phthalic acid diamide derivatives fluorine-containing aniline compounds as starting material, agricultural and horticultural insecticides, and a method for application of the insecticides” (Nihon Nohyaku Co., Ltd., priority 1997, dated 2002)

What was measured:
[1] = tested on: diamondback moth (Plutella xylostella); experiment: Insecticidal effect on diamondback moth (Test Example 1); format: in vivo; conditions: for Insecticidal effect on diamondback moth (Test Example 1), judged grade: mortality judged according to the criterion shown in Test Example 1
Method in brief: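 Triplicate groups of 10 insects: eggs laid on Chinese cabbage seedling by adults, seedling immersed then air-dried, kept at 25° C. Day-6 hatch counts gave mortality, rated by criterion.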

[2] = tested on: rice leafroller (Cnaphalocrocis medinalis); experiment: Insecticidal effect on rice leafroller (Test Example 3); format: in vivo; conditions: 500 ppm, 25° C., humidity 70%; for Insecticidal effect, Test Example 3: rice lamina immersed; for Insecticidal effect, Test Example 3 / Insecticidal effect on rice leafroller (Test Example 3), judged grade: four days after inoculation; for Insecticidal effect on rice leafroller (Test Example 3), judged grade: third-instar larvae
Method in brief: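 Insecticidal effect is judged by a predefined criterion from dead/alive counts four days after infesting air-dried lamina with third-instar larvae, kept on moistened filter paper at 25° C, 70% humidity.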

[3] = diamondback moth, mortality judged by criterion of Test Example 1
[4] = rice leafroller third-instar larvae
[5] = diamondback moth, judged by the mortality criterion of Test Example 1
[6] = third-instar larvae of rice leafroller

SMILES	Insecticidal effect on diamondback moth (Test Example 1), judged grade [1]	Insecticidal effect on rice leafroller (Test Example 3), judged grade ([2]; rice lamina dip)	other results
CC(C)(C)NC(=O)c1ccccc1C(=O)Nc1ccc2c(c1)OC(F)C(F)(F)O2 (stereo not shown) [compound 1149]	–	–	Insecticidal effect, Test Example 1 [1, 3]: A (100); Insecticidal effect, Test Example 3 [2, 4]: A (100)
Cc1ccccc1NC(=O)c1ccccc1C(=O)NC(C)C [compound 24]	–	–	Insecticidal effect, Test Example 1 [1, 5]: A (100); Insecticidal effect, Test Example 3 [2, 6]: D (79-50)
CC(C)NC(=O)c1c(C(=O)Nc2ccccc2Cl)cccc1[N+](=O)[O-] [compound 586]	A (100)	D (79-50)	–
Cc1cc(OC(F)F)ccc1NC(=O)c1cccc(SCC(F)(F)F)c1C(=O)NC(C)C [compound 797]	A (100)	C (89-80)	–
Cc1c(NC(=O)c2cccc([N+](=O)[O-])c2C(=O)NC(C)C)ccc(OC(F)F)c1Cl [compound 717]	A (100)	A (100)	–
Cc1cc(Cl)ccc1NC(=O)c1cccc(SC(C)C)c1C(=O)NC(C)C [compound 788]	C (89-80)	C (89-80)	–
Cc1cc(C(F)(F)C(F)(F)F)ccc1NC(=O)c1c(C)cccc1C(=O)NC(C)(C)C [compound 956]	–	–	Insecticidal effect, Test Example 1 [1, 3]: A (100); Insecticidal effect, Test Example 3 [2, 4]: A (100)
CC(C)NC(=O)c1cccc(Cl)c1C(=O)Nc1ccc(Cl)cc1Cl [compound 209]	–	–	Insecticidal effect, Test Example 1 [1, 5]: A (100); Insecticidal effect, Test Example 3 [2, 6]: B (99-90)
CC(C)NC(=O)c1cccc(Cl)c1C(=O)Nc1ccc(OC(F)F)cc1 [compound 200]	–	–	Insecticidal effect, Test Example 1 [1, 5]: A (100); Insecticidal effect, Test Example 3 [2, 6]: A (100)
Cc1cc(OCC(F)(F)F)ccc1NC(=O)c1cccc([N+](=O)[O-])c1C(=O)NC(C)C [compound 697]	A (100)	A (100)	–
COCCCNC(=O)c1cccc(I)c1C(=O)Nc1ccc(C(F)(F)C(F)(F)F)cc1C [compound 986]	–	–	Insecticidal effect, Test Example 1 [1, 3]: A (100); Insecticidal effect, Test Example 3 [2, 4]: A (100)
Cc1ccc(Cl)cc1NC(=O)c1ccc2ccccc2c1C(=O)NC(C)C [compound 821]	A (100)	A (100)	–
Cc1cc(OC(F)F)ccc1NC(=O)c1cccc([N+](=O)[O-])c1C(=O)NC1CCCC1 [compound 856]	A (100)	D (79-50)	–
CSCOc1ccc(NC(=O)c2ccccc2C(=O)NC(C)C)c(C)c1 [compound 70]	–	–	Insecticidal effect, Test Example 1 [1, 5]: A (100); Insecticidal effect, Test Example 3 [2, 6]: A (100)
Cc1cc(C(F)(F)C(F)(F)F)ccc1NC(=O)c1c(I)cccc1C(=O)NC(C)c1ccccn1 (stereo not shown) [compound 1778]	–	–	Insecticidal effect (Test Example 1), judged from mortality ([1]; diamondback moth, judged by the criterion of Test Example 1): A (100); Insecticidal effect (Test Example 3), judged from mortality ([2]; rice lamina dip, third-instar larvae of rice leafroller, 4 days after inoculation): A (100)
CC(C)NC(=O)c1cccc(F)c1C(=O)Nc1ccc(OC(F)(F)F)cc1Cl [compound 562]	A (100)	A (100)	–
Cc1cc(C(F)(F)F)ccc1NC(=O)c1cccc([N+](=O)[O-])c1C(=O)NC(C)C [compound 682]	A (100)	A (100)	–
